Consider five compounds from PMC7035970 (Cell chemical biology, 2019).

Values after ≈ are worked out from the molar mass of the structure shown. A value given as a limit tells only on which side of the number the result lay.

Assay [1] concerns M. tuberculosis strain mc^24914 (inhA promoter c(−15)t). In words: microbe, parasite or virus in culture. The following applies: for MIC: Mycobacterium tuberculosis. Type of assay: cell-based, Mycobacterium tuberculosis.
The test system of assay [2] is M. tuberculosis strain DRM12 (katG S315T). The class given is cell-based, Mycobacterium tuberculosis.
The subject of assay [3] is M. tuberculosis strain fgd1∷tn. In words: MIC versus F420H2 deficient strain fgd1∷tn. The class given is cell-based, Mycobacterium tuberculosis. The following applies: Mycobacterium tuberculosis.
Assay [4] has as its system M. tuberculosis strain JSF-Mtb-1 (fbiC F567S, inhA promoter c(−15)t). The class given is cell-based, Mycobacterium tuberculosis.
In assay [5] the test system is M. tuberculosis strain ddn∷tn. In words: microbe, parasite or virus in culture. Type of assay: cell-based, Mycobacterium tuberculosis. The following applies: for MIC: Mycobacterium tuberculosis.
The next assay relates to M. tuberculosis H37Rv. The following applies: introduction, no reference given; cited from earlier work.
Assay [6] has as its system spontaneous M. tuberculosis JSF-2019 resistant mutant strains. The class given is cell-based, Mycobacterium tuberculosis.
Assay [7] relates to M. tuberculosis clinical strains TDR31, TDR36, and TDR116. Type of assay: cell-based, Mycobacterium tuberculosis.

With `O=[N+]([O-])c1cn2c(n1)OC[C@@H](OCc1ccc(OC(F)(F)F)cc1)C2` [Pretomanid, reference compound], the MIC in assay [1] is 0.16 µM (≈ 0.0575 µg/mL); in assay [2] it was 0.039 µM (≈ 0.014 µg/mL); in assay [3], > 40 µM; in assay [4], >40 µM. In addition, the “loss of susceptibility, ddn∷tn versus wild type H37Rv” value (“loss … ddn∷tn versus wild type H37Rv” for short) in assay [5] is > 1000 x. Also, the “loss of potency from any one resistance mutation” value with M. tuberculosis H37Rv is ≥ 500 fold.

As to `O=[N+]([O-])c1ccc(/C=N/Nc2nc(Nc3ccccc3)nc(N3CCOCC3)n2)o1` [JSF-2513, (E)-4-morpholino-6-(2-((5-nitrofuran-2-yl)methylene)hydrazineyl)-N-phenyl-1,3,5-triazin-2-amine], the “MIC shift, mc^24914 (inhA overexpression) versus H37Rv” value in assay [1] is recorded as “four-fold”. Besides, the MIC in assay [1] was 2.5 µM (≈ 1.03 µg/mL); in assay [2], 0.63 µM (≈ 0.259 µg/mL); in assay [3], 10 µM (≈ 4.1 µg/mL); in assay [4], 20 µM (≈ 8.21 µg/mL); in assay [5] it was 1.3 µM (≈ 0.534 µg/mL). Also, the “MIC shift / loss of efficacy, DRM12 (KatG S315T) versus H37Rv” value (shortened to “MIC shift / loss of efficacy, DRM12”) in assay [2] is listed as “lack of an MIC shift”. In addition, the “loss … ddn∷tn versus wild type H37Rv” value in assay [5] was determined as 2 x.

`NNC(=O)c1ccncc1` [INH, reference compound]: the MIC in assay [6] was 0.16 µM (≈ 0.0219 µg/mL); in assay [1], 1.25 µM (≈ 0.171 µg/mL); in assay [2], >10 µM; in assay [3], 0.16 µM (≈ 0.0219 µg/mL); in assay [4] it was 1.25 µM (≈ 0.171 µg/mL); in assay [5], 0.16 µM (≈ 0.0219 µg/mL). Further, the “MIC shift versus the parental strain H37Rv” value in assay [6] is 8 x. The “MIC shift, mc^24914 (inhA overexpression) versus H37Rv” value in assay [1] came out at 8 x. Besides, the “MIC shift / loss of efficacy, DRM12” value in assay [2] was > 62 fold.

With `C[C@]1(COc2ccc(N3CCC(Oc4ccc(OC(F)(F)F)cc4)CC3)cc2)Cn2cc([N+](=O)[O-])nc2O1` [delamanid], the “loss of potency from any one resistance mutation” value in the assay with M. tuberculosis H37Rv was ≥ 500 fold.

In the case of `O=[N+]([O-])c1ccc(/C=N/Nc2nc(Nc3ccccc3)nc(Nc3ccccc3)n2)o1` [JSF-2019, (E)-6-(2-((5-nitrofuran-2-yl)methylene)hydrazinyl)-N2,N4-diphenyl-1,3,5-triazine-2,4-diamine], the “MIC shift, mc^24914 (inhA overexpression) versus H37Rv” value in assay [1] is recorded as 8 x. Further, the MIC worked out at 0.63 µM (≈ 0.262 µg/mL) in assay [1]; 0.078 µM (≈ 0.0325 µg/mL) in assay [2]; 1.3 µM (≈ 0.541 µg/mL) in assay [3]; 5.0 µM (≈ 2.08 µg/mL) in assay [4]; 0.63 µM (≈ 0.262 µg/mL) in assay [5]. Moreover, the “MIC shift / loss of efficacy, DRM12” value in assay [2] is given as “lack of an MIC shift”. Also, the “MIC change, JSF-Mtb-1 versus H37Rv” value in assay [4] is given as 64 x. Moreover, the “loss … ddn∷tn versus wild type H37Rv” value in assay [5] is given as 8 x. Moreover, the “activity versus clinical isolates with the KatG S315T mutation” value in assay [7] is “maintained its wild type strain activity”.
